In patent publication US8623859B2, “Bradykinin B1 antagonists” (Evotec AG, priority 2008, dated 2014):
pIC50: −log10 of the molar value.

These molecules were tested against T1, human B1 (Homo sapiens, UniProt P46663) (assay: Calcium flux assay for Bradykinin B1 antagonist, CHO-K1 cell line expressing human B1). Conditions: CHO-K1 cells expressing human B1, agonist Lys-(Des-Arg)-Bradykinin, read-out: Potency (IC50 value against human B1).
T1 construct: host or cells: CHO-K1
T1 sequence (P46663 1-353): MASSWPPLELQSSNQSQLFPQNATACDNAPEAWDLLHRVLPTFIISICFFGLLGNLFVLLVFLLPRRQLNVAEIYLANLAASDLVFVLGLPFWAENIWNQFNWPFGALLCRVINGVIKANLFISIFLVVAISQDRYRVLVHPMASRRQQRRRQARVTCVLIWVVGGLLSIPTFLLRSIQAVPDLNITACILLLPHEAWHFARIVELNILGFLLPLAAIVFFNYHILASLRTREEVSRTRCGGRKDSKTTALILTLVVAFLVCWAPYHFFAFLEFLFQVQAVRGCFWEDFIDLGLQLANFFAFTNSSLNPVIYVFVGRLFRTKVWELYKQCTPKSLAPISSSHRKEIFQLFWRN
Format: cell-based
Protocol: Calcium Flux Assay for Bradykinin B1 Antagonist
The potency to inhibit the Bradykinin B1 receptors was determined for the compounds of this invention in a cell-based fluorescent calcium-mobilization assay. The assay measures the ability of test compounds to inhibit Bradykinin B1 receptor agonist-induced increase of intracellular free Ca^2+ in cell lines expressing B1.
The change of the intracellular Ca^2+ concentration is monitored with a specifically designed fluorescent plate reader (FlexStation, Molecular Devices).
CHO-K1 cell line expressing human B1 was purchased from Euroscreen (Gosselies, Belgium, with reference name hBl-D1). CHO-K1 cell lines expressing rat B1 or mouse B1 were established in the following way: the full-length receptor-coding cDNA clones were obtained by PCR performed on rat or mouse brain cDNAs. The respective cDNAs were cloned into an expression vector under the control of a CMV promotor. The resultant plasmids were introduced into CHO-K1 cells with liposome technology (FuGENE; Roche Diagnostics, Basel), according to the standard protocols described by the manufacturer. Cell lines expressing a Bradykinin receptor were selected in the culture medium containing 400 μg/ml G418 (Sigma). From selected cell populations, monoclonal cell lines were isolated by single cell cloning. The expression of Bradykinin receptors was confirmed by immunofluorescence staining of the cells, as well as by calcium flux assay.
Human B1-expressing cells were grown in Nutrient Mixture Ham's F12 (Sigma) containing 10% Foetal bovine serum (Sigma) and 400 μg/ml G418 (Sigma), 5 μg/ml puromycim (Sigma); Rat B1 and mouse B1-expressing cells were grown in DMEM/F12 medium (Sigma) containing 10% Foetal bovine serum (Sigma) and 400 μg/ml G418 (Sigma).
For the calcium flux assay, 80% confluent cells were detached from the culture vessels with Versene (Gibco; for human B1 cell-line) or with 1× trypsin-EDTA solution (Sigma; for rodent B1 cell-line), and seeded into 384-well plates (Cell binding Surface; Corning, N.Y.; #3683) at a density of 15,000 cells per well for human B1 or at a density of 20,000 cells per well for rodent B1. Cells were seeded in a volume of 50 μl in medium without antibiotics and incubated overnight in a humidified atmosphere with 5% CO2 at 37° C. The following day, the medium was replaced with 20 μl of 5 μM Fluo-4AM dye (Molecular Probes) in assay buffer (2.5 mM probenicid, 1 mg/ml pluronic acid, 0.1% BSA, 135 mM NaCl, 5 mM KCl, 1.8 mM CaCl, 1 mM MgCl2, 10 mM HEPES, 5.6 mM glucose, 0.05% gelatine, pH 7.4). The calcium indicator loaded cells were incubated at 37° C. for 2 hrs. Extracellular dye was then removed and each well was filled with 45 μl of assay buffer. Cell plates were kept in dark until used. Test compounds were assayed at 8 concentrations in triplicate. Serial 10-fold dilutions in 100% DMSO were made at a 100-times higher concentration than the final concentration, and then diluted 1:10 in assay buffer. 5 μl of each diluted compound was added to the well of cell plates (yielding final concentration with 1% DMSO), and incubated for 30 min at 25° C. before the addition of B1 agonist on the FlexStation.
The addition of agonist 20 μl per well to the assay plate was carried out on the FlexStation while continuously monitoring Ca^2+-dependent fluorescence at 538 nm. The integrated values, normalized with the background fluorescence, were plotted against the logarithm of the antagonist concentrations.
For `COc1cc(C)c(S(=O)(=O)N(C)Cc2cc(C(=O)N3CCN(CCN4CCOCC4)CC3)co2)c(C)c1` [Ex 35, 4-methoxy-N,2,6-trimethyl-N-[(4-{[4-(2-morpholin-4-ylethyl)piperazin-1-yl]carbonyl}furan-2-yl)methyl]benzenesulfonamide], the pIC50 was 6.00 to 7.00. `COc1cc(C)c(S(=O)(=O)N(C)Cc2cc(C(=O)NCCc3ccc(C4=N[C@@H]5CCCC[C@H]5N4)cc3)co2)c(C)c1` [Ex 36, N-(2-{4-[(3aR,7aR)-3a,4,5,6,7,7a-hexahydro-1H-benzimidazol-2-yl]phenyl}ethyl)-5-({[(4-methoxy-2,6-dimethylphenyl)sulfonyl](methyl)amino}methyl)furan-3-carboxamide] was tested, and the pIC50 was 7.00 to 8.00. `COc1cc(C)c(S(=O)(=O)N(C)Cc2cc(C(=O)NCc3ccc(CN4CCCC4)cc3)co2)c(C)c1` [Ex 37, 5-({[(4-methoxy-2,6-dimethylphenyl)sulfonyl](methyl)amino}methyl)-N-[4-(pyrrolidin-1-ylmethyl)benzyl]furan-3-carboxamide] gave a pIC50 of 6.00 to 7.00. `COc1cc(C)c(S(=O)(=O)N(C)Cc2cc(C(=O)N(C)Cc3ccc(-c4cncnc4)cc3)co2)c(C)c1` [Ex 38, 5-({[(4-methoxy-2,6-dimethylphenyl)sulfonyl](methyl)amino}methyl)-N-methyl-N-(4-pyrimidin-5-ylbenzyl)furan-3-carboxamide] showed a pIC50 of 6.00 to 7.00. In the case of `COc1cc(C)c(S(=O)(=O)N(C)Cc2cc(C(=O)N3CCN(CCN4CCCC4)CC3)co2)c(C)c1` [Ex 39, 4-methoxy-N,2,6-trimethyl-N-[(4-{[4-(2-pyrrolidin-1-ylethyl)piperazin-1-yl]carbonyl}furan-2-yl)methyl]benzenesulfonamide], the pIC50 was 6.00 to 7.00. `COc1cc(C)c(S(=O)(=O)N(C)Cc2cc(C(=O)N(C)Cc3ccc(C4=NCC(C)(C)CN4)cc3)co2)c(C)c1` [Ex 40, N-[4-(5,5-dimethyl-1,4,5,6-tetrahydropyrimidin-2-yl)benzyl]-5-({[(4-methoxy-2,6-dimethylphenyl)sulfonyl](methyl)amino}methyl)-N-methylfuran-3-carboxamide] gave a pIC50 of 6.00 to 7.00. `COc1cc(C)c(S(=O)(=O)N(C)Cc2cc(C(=O)N3CCC(CN4CCCC4)CC3)co2)c(C)c1` [Ex 41, 4-methoxy-N,2,6-trimethyl-N-[(4-{[4-(pyrrolidin-1-ylmethyl)piperidin-1-yl]carbonyl}furan-2-yl)methyl]benzenesulfonamide] showed a pIC50 of 6.00 to 7.00. In the case of `COc1cc(C)c(S(=O)(=O)N(C)Cc2cc(C(=O)NCCc3ccc(CNCC(C)C)cc3)co2)c(C)c1` [Ex 42, 5-({[(4-methoxy-2,6-dimethylphenyl)sulfonyl](methyl)amino}methyl)-N-[2-(4-{[(2-methylpropyl)amino]methyl}phenyl)ethyl]furan-3-carboxamide], the pIC50 was 6.00 to 7.00. With `COc1cc(C)c(S(=O)(=O)N(C)Cc2cc(C(=O)N(C)Cc3ccc(-c4nccn4C)cc3)co2)c(C)c1` [Ex 43, 5-({[(4-methoxy-2,6-dimethylphenyl)sulfonyl](methyl)amino}methyl)-N-methyl-N-[4-(1-methyl-1H-imidazol-2-yl)benzyl]furan-3-carboxamide] the pIC50 was 6.00 to 7.00. `COc1cc(C)c(S(=O)(=O)N(C)Cc2cc(C(=O)NCCc3ccc(Nc4nccc(N)n4)cc3)co2)c(C)c1` [Ex 44, N-(2-{4-[(4-aminopyrimidin-2-yl)amino]phenyl}ethyl)-5-({[(4-methoxy-2,6-dimethylphenyl)sulfonyl](methyl)amino}methyl)furan-3-carboxamide] showed a pIC50 of 6.00 to 7.00. Molecule `COc1cc(C)c(S(=O)(=O)N(C)Cc2cc(C(=O)NCCc3ccc(Nc4ccnc(N)n4)cc3)co2)c(C)c1` [Ex 45, N-(2-{4-[(2-aminopyrimidin-4-yl)amino]phenyl}ethyl)-5-({[(4-methoxy-2,6-dimethylphenyl)sulfonyl](methyl)amino}methyl)furan-3-carboxamide] has a pIC50 of 6.00 to 7.00. For `COc1cc(C)c(S(=O)(=O)N(C)Cc2cc(C(=O)NCCc3ccc(CN4CCCC4)cc3)co2)c(C)c1` [Ex 46, 5-({[(4-methoxy-2,6-dimethylphenyl)sulfonyl](methyl)amino}methyl)-N-{2-[4-(pyrrolidin-1-ylmethyl)phenyl]ethyl}furan-3-carboxamide], the pIC50 was 6.00 to 7.00. In the case of `CCN(Cc1cc(C(=O)N(C)CCc2ccc(C3=NCCN3)cc2)co1)S(=O)(=O)c1c(C)cc(OC)cc1C` [Ex 47, N-{2-[4-(4,5-dihydro-1H-imidazol-2-yl)phenyl]ethyl}-5-({ethyl[(4-methoxy-2,6-dimethylphenyl)sulfonyl]amino}methyl)-N-methylfuran-3-carboxamide], the pIC50 was greater than 8.00. `COc1cc(C)c(S(=O)(=O)N(Cc2cc(C(=O)N(C)CCc3ccc(C4=NCCN4)cc3)co2)C(C)C)c(C)c1` [Ex 48, N-{2-[4-(4,5-dihydro-1H-imidazol-2-yl)phenyl]ethyl}-5-({[(4-methoxy-2,6-dimethylphenyl)sulfonyl](1-methylethyl)amino}methyl)-N-methylfuran-3-carboxamide] was tested, and the pIC50 was 7.00 to 8.00. In the case of `COc1cc(C)c(S(=O)(=O)N(Cc2cc(C(=O)NCCc3ccc(C4=NCCN4)cc3)co2)CC2CC2)c(C)c1` [Ex 49, 5-({(Cyclopropylmethyl)[(4-methoxy-2,6-dimethylphenyl)sulfonyl]amino}methyl)-N-{2-[4-(4,5-dihydro-1H-imidazol-2-yl)phenyl]ethyl}furan-3-carboxamide], the pIC50 was 7.00 to 8.00. For `COc1cc(C)c(S(=O)(=O)N(Cc2cc(C(=O)N(C)Cc3ccc(C4=NCCN4)cc3)co2)c2ccccc2)c(C)c1` [Ex 50, N-[4-(4,5-dihydro-1H-imidazol-2-yl)benzyl]-5-({[(4-methoxy-2,6-dimethylphenyl)sulfonyl] (phenyl)amino}methyl)-N-methylfuran-3-carboxamide], the pIC50 was 6.00 to 7.00. Molecule `COc1cc(C)c(S(=O)(=O)N(Cc2cc(C(=O)N(C)CCc3ccc(C4=NCCN4)cc3)co2)C2CCC2)c(C)c1` [Ex 51, 5-({Cyclobutyl[(4-methoxy-2,6-dimethylphenyl)sulfonyl]amino}methyl)-N-{2-[4-(4,5-dihydro-1H-imidazol-2-yl)phenyl]ethyl}-N-methylfuran-3-carboxamide] has a pIC50 greater than 8.00. With `COc1cc(C)c(S(=O)(=O)N(Cc2cc(C(=O)NCCc3ccc(C4=NCCN4)cc3)co2)C2CC2)c(C)c1` [Ex 52, 5-({Cyclopropyl[(4-methoxy-2,6-dimethylphenyl)sulfonyl]amino}methyl)-N-{2-[4-(4,5-dihydro-1H-imidazol-2-yl)phenyl]ethyl}furan-3-carboxamide] the pIC50 was greater than 8.00. In the case of `COc1cc(C)c(S(=O)(=O)N(Cc2cc(C(=O)N3CCN(C4CCN(C)CC4)CC3)co2)C2CC2)c(C)c1` [Ex 53, N-cyclopropyl-4-methoxy-2,6-dimethyl-N-[(4-{[4-(1-methylpiperidin-4-yl)piperazin-1-yl]carbonyl}furan-2-yl)methyl]benzenesulfonamide], the pIC50 was 6.00 to 7.00. With `COc1cc(C)c(S(=O)(=O)N(Cc2cc(C(=O)NCc3cccc(CN4CCCC4)c3)co2)C2CC2)c(C)c1` [Ex 54, 5-({Cyclopropyl[(4-methoxy-2,6-dimethylphenyl)sulfonyl]amino}methyl)-N-[3-(pyrrolidin-1-ylmethyl)benzyl]furan-3-carboxamide] the pIC50 was 7.00 to 8.00. In the case of `COc1cc(C)c(S(=O)(=O)N(Cc2cc(C(=O)N(C)Cc3cccc(CN4CCCC4)c3)co2)C2CC2)c(C)c1` [Ex 55, 5-({Cyclopropyl[(4-methoxy-2,6-dimethylphenyl)sulfonyl]amino}methyl)-N-methyl-N-[3-(pyrrolidin-1-ylmethyl)benzyl]furan-3-carboxamide], the pIC50 was 7.00 to 8.00.
